# Assay results taken from patent publication US8518946B2, “Salts of (R)-7-[3-amino-4-(2,4,5-trifluorophenyl)butanoyl]-3-trifluoromethyl-5,6,7,8-tetrahydroimidazo[1,5-a] pyrazine-1-carboxylic acid, preparation method and medical use thereof” (Jiangsu Hengrui Medicine Co., Ltd., priority 2009, dated 2013).
# Like-named read-outs stand apart in the source and are kept apart here.
# Columns and labels:
# [1] = Solubility experiment in four systems; type: physicochemical
# Protocol: According to the conventional solubility measurement, the solubility of the test samples were determined in four different systems: phosphate buffer solution (PBS, pH=7.4), methanol, 0.1% hydrochloric acid and water.
# [2] = molecular target: T1, DPP-IV (Homo sapiens, UniProt P27487); experiment: DPP-IV inhibition, Promega DPPIV-Glo Protease Assay; type: biochemical
# T1 construct: purchased Calbiochem 317630
# Protocol: (§1) The compounds of the present invention were tested to determine their DPP-IV, DPP-VIII, DPP-IX inhibition activity according to the following methods. The half inhibition concentrations IC50 (the concentration of the test compound showing 50% inhibition to the enzyme activity) of each compound were determined by reaction test and calculation of the mixture of fixed amounts of enzyme and substrate with several different concentrations of the test compounds.
# (§2) The compounds of the present invention were tested to determine the DPP-IV, DPP-VIII, DPP-IX inhibition activity in the following tests using Promega DPPIV-Glo™ Protease Assay (Cat No. G8350/G8351) Kit, wherein:
# a. DPP-IV enzyme bought from Calbiochem, Catalog no. 317630;
# (§3) The preparation procedure of the conventional reagent such as DPPIV-Glo buffer, luciferin reagents needed in the test and the detail operation of the test can refer to the specifications of the kits. The assay was carried out as following steps:
# (§4) The tested compounds were dissolved in DMSO to prepare a series of different concentrations of the test compound solution. DPPIV-Glo buffer and the freezing luciferin detection reagent were equilibrated to room temperature. The luciferin detection reagent was dissolved in moderate buffer in a brown flask to form a solution. Then DPP-IV-Glo. was dissolved in ultrapure water to give the appropriate concentration. The substrate solution and the luciferin detection reagent solution were mixed sufficiently in an appropriate ratio (the ratio of the invention is 1:49), and the mixture was layed at room temperature for 30-60 minutes. Tris buffer (2 mM, pH 8.0), the test compounds and DPP-IV (DPP-VIII or DPP-IX) were mixed and then transferred to a 96-well plate. Each test contains double-well of three-well control. The same volume of DMSO was added to the negative control and blank control. Then the 96-well plate was added with mixed solution of luciferin detection reagent and substrate to initiate the reaction. The 96-wells plate was incubated at room temperature on a plate shaker for 40 minutes after sealed. The strength of the fluorescent signal in each well was determined by microplate reader and the inhibition rate to the enzyme of the compound at this concentration was calculated by the formula as following: inhibitory rate: IR=[1−(S−B)/(N−B)]*100% • S: value of the sample • B: value of the blank control • N: value of the negative control
# (§5) IC50 of the test compounds can be calculated by the inhibition rate at different concentration.
# [3] = molecular target: T2, DPP-VIII (Homo sapiens, UniProt Q6V1X1); experiment: DPP-VIII inhibition, Promega DPPIV-Glo Protease Assay; type: biochemical; details: read-out: IC50 DPP8
# T2 construct: purchased Bioscience 80080
# Protocol: as §1, §2
# b. DPP-VIII enzyme bought from Bioscience, Catalog no. 80080;
# as §3, §4, §5
# [4] = molecular target: T3, DPP-IX (Homo sapiens, UniProt Q86TI2); experiment: DPP-IX inhibition, Promega DPPIV-Glo Protease Assay; type: biochemical; details: read-out: IC50 DPP9
# T3 construct: purchased Bioscience 80090
# Protocol: as §1, §2
# c. DPP-IX enzyme bought from Bioscience, Catalog no. 80090.
# as §3, §4, §5
# [5] = Pharmacokinetics assay in rats (LC/MS/MS plasma concentration); type: in vivo, SD rats; details: for F: intragastric 3.0 mg/kg (as free base), absolute bioavailability from AUC0-t vs vein injection
# Text: The compound of Example 3 was administrated intragastrically or tail vein injection to rats and the compounds of Example 1-4, Example 9 and Example 11-12 were administrated intragastrically to determine the drug concentration in plasma at different time points by LC/MS/MS measurement. The pharmacokinetics of the compounds of the present invention was studied and evaluated in rats. And the oral absolute bioavailability was investigated.
# Compounds of Example 1-4, Example 9 and Example 11-12.
# […] healthy adult SD rats, male and female in half, were purchased from SINO-BRITSH SIPPR/BK LAB.ANIMAL LTD., CO, License number: SCXK (Shanghai) 2008-0016.
# Vein injection group: the proper weighed test compound was dissolved in 0.5 mL of DMSO by ultrasound and then diluted with normal saline to 15 mL to form a 0.3 mg/mL solution.
# Intragastrically administered group: the proper weighed test compound was dissolved in 0.5% CMC-Na by ultrasound to form a 0.3 mg/mL of suspension.
# 32 healthy adult SD rats, male and female in half, were divided into 8 groups so that each group consisted 4 rats. After an overnight fast, the rats were tail vein injected of the compound of Example 3 and intragastrically administered the compound of Example 3 and the salt thereof, at a dose of 3.0 mg/kg (calculated as the free base form) and a volume of 10 mL/kg.
# Blood samples (0.2 mL) of the rats in vein injection group were taken from eye socket at pre administration and at 2, 15, 30 minutes and 1.0, 2.0, 4.0, 6.0, 8.0, 12.0, 24.0 hours post administration, which were stored in heparinized tubes and centrifuged for 10 minutes at 3,500 rpm. The plasma samples were stored at −20° C. until analysis. The rats were fed 2 hours after administration.
# Blood samples of the rats in intragastrically administered group were taken at pre administration and at 0.5, 1.0, 2.0, 3.0, 4.0, 6.0, 8.0, 12.0, 24.0 hours post administration. The samples were treated with the same method as mentioned above.
# 50 μL of internal standard solution and 150 μL of methanol were added to 50 μL of rat plasma obtained at various time points after administration. Then the mixture was mixed for 3 minutes using a vortexer and centrifuged for 10 minutes at 13,500 rpm. 10 μL of the supernatant was analyzed by LC/MS/MS.
# The compartmental model of pharmacokinetics was fitted for the test compounds and the major pharmacokinetic parameters were calculated by DAS 2.0 software in which Cmax and tmax were the actually measured values. The absolute bioavailability was calculated by AUC0-t taken from post administration and vein injection.
# [6] = tested on: normal ICR mice; experiment: Hypoglycemic effect, oral glucose tolerance in normal ICR mice; type: in vivo; details: 10 mg/kg by gavage, glucose 4 g/kg 15 minutes after administration, 10 mg/kg
# Protocol: To observe the effects on oral glucose tolerance of the compounds of Example 1-4 and Example 8-12 in normal ICR mice (SINO-BRITSH SIPPR/BK LAB.ANIMAL LTD., CO), the hypoglycemic effects in vivo have been evaluated using blood-glucose meter to measure and analyze the sugar content of the samples at different time points during 2 hours. The samples were taken from the mouse's tail.
# The administration dose was 10 mg/kg, and the blank was administered with water. Both groups contained 5% DMSO.
# The mice were administered by gavage. 4 g/kg of 10% glucose solution was administered (0.8 mL to each mice) 15 minutes after administration.
# The mice were administered according to above dose (the blank group was administrated with 5% DMSO aqueous solution) and the blood sugar value was measured (−15 minutes).
# 15 minutes after administration, the mice were administered of 4 g/kg of 20% glucose solution and the values of blood sugar were tested by Roche ACCU-CHEK at 0, 15, 30, 45, 60, 120 minutes.
# [7] = intragastric 3.0 mg/kg, phosphate
# T2 sequence (Q6V1X1 whole entry): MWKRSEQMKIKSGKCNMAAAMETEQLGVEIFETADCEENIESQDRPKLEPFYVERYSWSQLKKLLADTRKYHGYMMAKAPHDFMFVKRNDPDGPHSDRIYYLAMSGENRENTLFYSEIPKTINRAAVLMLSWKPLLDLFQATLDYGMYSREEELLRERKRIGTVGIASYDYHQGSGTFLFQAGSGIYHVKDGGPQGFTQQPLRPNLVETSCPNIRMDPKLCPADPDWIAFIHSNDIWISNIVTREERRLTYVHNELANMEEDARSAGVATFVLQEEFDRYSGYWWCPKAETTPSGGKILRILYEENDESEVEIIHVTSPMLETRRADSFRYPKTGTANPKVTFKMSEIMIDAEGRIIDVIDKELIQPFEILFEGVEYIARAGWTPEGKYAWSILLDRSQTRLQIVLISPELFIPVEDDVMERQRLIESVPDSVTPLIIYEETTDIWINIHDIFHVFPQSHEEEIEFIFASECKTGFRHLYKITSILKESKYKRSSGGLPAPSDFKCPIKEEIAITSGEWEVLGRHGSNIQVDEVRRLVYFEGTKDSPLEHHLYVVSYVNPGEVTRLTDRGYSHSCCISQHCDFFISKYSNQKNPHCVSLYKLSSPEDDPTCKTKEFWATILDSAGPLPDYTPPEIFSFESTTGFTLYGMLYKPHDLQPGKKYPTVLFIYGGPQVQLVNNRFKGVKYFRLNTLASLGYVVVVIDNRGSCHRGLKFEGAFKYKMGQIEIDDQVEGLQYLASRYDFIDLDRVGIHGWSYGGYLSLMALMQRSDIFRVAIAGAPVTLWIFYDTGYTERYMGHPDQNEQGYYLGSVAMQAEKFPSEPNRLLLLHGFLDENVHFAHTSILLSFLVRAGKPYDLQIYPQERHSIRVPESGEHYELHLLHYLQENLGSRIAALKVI
# T3 sequence (Q86TI2 whole entry): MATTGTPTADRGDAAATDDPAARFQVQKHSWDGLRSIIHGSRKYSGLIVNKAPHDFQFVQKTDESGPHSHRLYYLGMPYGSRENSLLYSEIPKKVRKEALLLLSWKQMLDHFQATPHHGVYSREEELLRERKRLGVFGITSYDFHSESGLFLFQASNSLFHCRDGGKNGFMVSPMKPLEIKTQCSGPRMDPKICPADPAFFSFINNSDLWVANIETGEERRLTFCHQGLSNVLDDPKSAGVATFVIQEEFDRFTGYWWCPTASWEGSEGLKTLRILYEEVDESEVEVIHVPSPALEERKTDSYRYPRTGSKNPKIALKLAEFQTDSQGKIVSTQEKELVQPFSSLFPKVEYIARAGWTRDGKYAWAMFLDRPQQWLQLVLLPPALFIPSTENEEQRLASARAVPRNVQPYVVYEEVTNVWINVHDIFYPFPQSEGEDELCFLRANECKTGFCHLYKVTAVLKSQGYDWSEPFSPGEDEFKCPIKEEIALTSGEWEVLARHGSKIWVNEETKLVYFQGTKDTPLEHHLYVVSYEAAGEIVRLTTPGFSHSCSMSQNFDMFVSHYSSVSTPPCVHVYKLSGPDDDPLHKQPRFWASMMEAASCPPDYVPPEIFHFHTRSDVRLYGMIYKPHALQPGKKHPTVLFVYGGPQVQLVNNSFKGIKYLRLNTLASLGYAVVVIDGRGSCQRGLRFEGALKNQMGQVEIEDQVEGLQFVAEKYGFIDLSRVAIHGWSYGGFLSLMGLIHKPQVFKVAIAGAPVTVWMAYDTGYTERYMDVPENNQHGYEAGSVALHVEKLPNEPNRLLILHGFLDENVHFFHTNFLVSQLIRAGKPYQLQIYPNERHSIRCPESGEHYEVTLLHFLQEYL
# T1 sequence (P27487 whole entry): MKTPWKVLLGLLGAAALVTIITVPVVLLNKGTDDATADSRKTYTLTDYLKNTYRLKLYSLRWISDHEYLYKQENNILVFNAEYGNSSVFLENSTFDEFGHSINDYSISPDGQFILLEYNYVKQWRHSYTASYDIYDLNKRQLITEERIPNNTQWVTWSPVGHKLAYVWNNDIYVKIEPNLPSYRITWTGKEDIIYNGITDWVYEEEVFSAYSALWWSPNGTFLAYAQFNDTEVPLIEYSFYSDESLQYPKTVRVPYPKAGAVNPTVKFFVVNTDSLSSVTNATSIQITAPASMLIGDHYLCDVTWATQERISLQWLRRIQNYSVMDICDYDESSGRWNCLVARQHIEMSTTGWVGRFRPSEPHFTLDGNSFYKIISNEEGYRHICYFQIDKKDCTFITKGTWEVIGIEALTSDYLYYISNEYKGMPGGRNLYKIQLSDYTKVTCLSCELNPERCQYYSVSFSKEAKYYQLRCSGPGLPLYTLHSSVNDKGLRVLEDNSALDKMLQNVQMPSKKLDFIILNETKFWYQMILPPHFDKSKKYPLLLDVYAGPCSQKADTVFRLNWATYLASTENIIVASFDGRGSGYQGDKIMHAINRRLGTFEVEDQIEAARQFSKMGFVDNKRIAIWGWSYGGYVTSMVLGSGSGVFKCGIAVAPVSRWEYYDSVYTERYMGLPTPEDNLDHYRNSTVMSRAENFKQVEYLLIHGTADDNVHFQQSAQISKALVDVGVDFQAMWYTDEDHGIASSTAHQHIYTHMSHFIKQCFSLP
SMILES,IC50 [2] [µM],IC50 [3] [µM],IC50 [4] [µM],"Solubility Value, 0.1% HCl ([1]; 0.1% hydrochloric acid) [mg/mL]","Solubility Value, PBS (pH 7.4) ([1]; PBS pH 7.4) [mg/mL]","Solubility Value, methanol ([1]; methanol) [mg/mL]","Solubility Value, water ([1]; water) [mg/mL]",Hypoglycemic rate of blood sugar of 30 minutes after administration [6] [%],also measured
"N[C@@H](CC(=O)N1CCn2c(C(F)(F)F)nc(C(=O)O)c2C1)Cc1cc(F)c(F)cc1F [Example 2, (R)-7-[3-Amino-4-(2,4,5-trifluorophenyl)butanoyl]-3-trifluoromethyl-5,6,7,8-tetrahydro-imidazo[1,5-a]pyrazine-1-carboxylic acid phosphate]",0.015,400,185,,,,,,"Solubility Value, 0.1% HCl ([1]; 0.1% hydrochloric acid, phosphate): 32.5 mg/mL; Solubility Value, PBS (pH 7.4) ([1]; PBS pH 7.4, phosphate): 20.2 mg/mL; Solubility Value, methanol ([1]; methanol, phosphate): 37.5 mg/mL; Solubility Value, water ([1]; water, phosphate): 26.1 mg/mL; pharmacokinetics and bioavailability (conclusion in words) ([5]; compared with other compounds): improved obviously; F ([5]; phosphate): 8.63%; AUC(0-t) [5, 7]: 198.1 ± 57.4 ng·h/mL; CL/F [5, 7]: 270 ± 75.8 mL/min/kg; Cmax [5, 7]: 66.6 ± 36.4 ng/mL; MRT [5, 7]: 4.05 ± 3.66 h; Tmax [5, 7]: 0.92 ± 0.58 h; t1/2 [5, 7]: 1.69 ± 1.24 h; Hypoglycemic rate of blood sugar of 30 minutes after administration ([6]; phosphate): 29.96%"
"N[C@@H](CC(=O)N1CCn2c(C(F)(F)F)nc(C(=O)O)c2C1)Cc1cc(F)c(F)cc1F [Example 3, (R)-7-[3-Amino-4-(2,4,5-trifluorophenyl)butanoyl]-3-trifluoromethyl-5,6,7,8-tetrahydro-imidazo[1,5-a]pyrazine-1-carboxylic acid]",0.013,236,125,20.5,7.0,32.7,9.2,25.60,"half-life ([5]; both sexes, SD, rat, plasma, iv, 3 mg/kg, tail vein injection 3.0 mg/kg): 2.35 ± 1.9 h; AUC(0-t) ([5]; both sexes, SD, rat, plasma, iv, 3 mg/kg, tail vein injection 3.0 mg/kg, read-out: AUC0-t): 2300 ± 353 ng·h/mL; MRT ([5]; both sexes, SD, rat, plasma, iv, 3 mg/kg, tail vein injection 3.0 mg/kg, read-out: MRT): 0.22 ± 0.06 h; AUC(0-t) ([5]; intragastric 3.0 mg/kg): 58.3 ± 17.3 ng·h/mL; CL/F ([5]; intragastric 3.0 mg/kg): 862 ± 267 mL/min/kg; Cmax ([5]; intragastric 3.0 mg/kg): 13.4 ± 5.6 ng/mL; MRT ([5]; intragastric 3.0 mg/kg): 4.45 ± 1.01 h; Tmax ([5]; intragastric 3.0 mg/kg): 1.00 ± 0.00 h; t1/2 ([5]; intragastric 3.0 mg/kg): 2.73 ± 0.73 h; F [5]: 2.54%; CL/F ([5]; tail vein injection 3.0 mg/kg): 22.2 ± 3.33 mL/min/kg"
"N[C@@H](CC(=O)N1CCn2c(C(F)(F)F)nc(C(=O)[O-])c2C1)Cc1cc(F)c(F)cc1F.[Li+] [Example 5, Lithium (R)-7-[3-amino-4-(2,4,5-trifluorophenyl)butanoyl]-3-trifluoromethyl-5,6,7,8-tetrahydro-imidazo[1,5-a]pyrazine-1-carboxylate]",0.025,80.5,50.6,,,,,,"solubility ([1]; 0.1% hydrochloric acid, simulated gastric fluid, 0.1% hydrochloric acid, read-out: Solubility Value, 0.1% HCl): 101 mg/mL; solubility ([1]; methanol, organic solvent or mixture, methanol, read-out: Solubility Value, methanol): 50.3 mg/mL; solubility ([1]; phosphate buffer solution (PBS), pH 7.4, aqueous buffer, PBS pH 7.4, read-out: Solubility Value, PBS (pH 7.4)): 60.5 mg/mL; solubility ([1]; water, read-out: Solubility Value, water): 40.2 mg/mL"
"N[C@@H](CC(=O)N1CCn2c(C(F)(F)F)nc(C(=O)O)c2C1)Cc1cc(F)c(F)cc1F [Example 8, Triethylammonium (R)-7-[3-amino-4-(2,4,5-trifluorophenyl)butanoyl]-3-(trifluoromethyl)-5,6,7,8-tetrahydro-imidazo[1,5-a]pyrazine-1-carboxylate]",,152,136,8.3,0.2,20.1,0.5,19.82,
"N[C@@H](CC(=O)N1CCn2c(C(F)(F)F)nc(C(=O)O)c2C1)Cc1cc(F)c(F)cc1F [Example 10, 2-Hydroxyethyl(trimethyl)ammonium (R)-7-[3-Amino-4-(2,4,5-trifluorophenyl)-butanoyl]-3-trifluoromethyl-5,6,7,8-tetrahydro-imidazo[1,5-a]pyrazine-1-carboxylate]",0.023,210,166,15.2,1.2,40.3,1.5,20.92,
